Assay results published in paper PMC11289455 (Scientific Reports, 2024).
“And” between values parts separate entries of the source, which are not always exact repeats. Equal entries are not always repeated. Positions of bridges follow the written chain, without caps; N, C: chain ends. Non-standard residues stand in square brackets, D forms with d. Trp(7-Me) = Cc1cccc2c(C[C@H](N)C(=O)O)c[nH]c12; 2Nal = N[C@@H](Cc1ccc2ccccc2c1)C(=O)O; AEF = NCCOc1ccc(C[C@H](N)C(=O)O)cc1; 3Pal = N[C@@H](Cc1cccnc1)C(=O)O; Pen = CC(C)(S)[C@H](N)C(=O)O; Thp = NC1(C(=O)O)CCOCC1; Sar = CNCC(=O)O

T1: Biotinylated recombinant rat IL23R (rIL23R^biot, hGH.ratIL23R.24-317.GS.Avi.TEV.8His) (rat, UniProt F1LX96 24-317, biotinylated (TurboBiotinylase))
T1 construct: rat IL-23 receptor subunit IL-23R, extracellular domain, residues 24-317, from the construct name hGH.ratIL23R.24-317.GS.Avi.TEV.8His; A GS linker stands between the receptor and the Avi tag; The 8His tag follows a TEV site; also called rat IL-23R ECD; not shown: Avi, C-terminal, kept; His8, C-terminal, cleaved
T1 sequence (looked up): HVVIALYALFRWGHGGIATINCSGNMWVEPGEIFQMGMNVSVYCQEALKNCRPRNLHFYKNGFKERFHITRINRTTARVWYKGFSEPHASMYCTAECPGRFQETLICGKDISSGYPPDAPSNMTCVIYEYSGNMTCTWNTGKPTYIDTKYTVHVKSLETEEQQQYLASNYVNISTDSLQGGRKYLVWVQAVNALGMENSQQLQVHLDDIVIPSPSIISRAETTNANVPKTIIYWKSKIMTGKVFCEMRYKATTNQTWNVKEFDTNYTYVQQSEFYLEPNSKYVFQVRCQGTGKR


What was measured:
[1] = system: IL-12– and IL-23–dependent phosphorylation of STAT4 and STAT3; set-up: method as in PMID 31341059; conditions: cited from earlier work
[2] = target: T1, Biotinylated recombinant rat IL23R …; experiment: SPR; ~2500 RU biotinylated rat IL-23R captured on a streptavidin chip; JNJ-77242113 injected at multiple concentrations; PBS, 0.05% P20, 5% DMSO; 37 °C; association 150 s, dissociation 2000 s; Biacore 8K+, parallel kinetics, 1:1 binding model; conditions: both partners purified

Kd [2] | Molecule | Effect on IL-12– and IL-23–dependent phosphorylation of STAT4 and STAT3 [1]
– | deucravacitinib | inhibits both
17.5 pM and 12 to 23 pM | Ac-[Pen]NT[Trp(7-Me)]K(Ac)[Pen][AEF][2Nal][Thp]EN[3Pal][Sar]-NH2 (disulfide 1-6) [JNJ-77242113] | –
